Measured values reported in patent US8772243B2, “Methods for predicting the response to anti-cancer treatment with an agonist of TLR7 or an agonist of TLR8” (Inserm (Institut National de la Sante et de la Recherche …, priority 2008, dated 2014).

Key:
Assay type in all cases: cell-based, human
A549 and SK-MES cells [1] = assay: Transcriptomic analysis of 182 genes (Taq Man Low Density Array); conditions: 6 h stimulation; versus unstimulated cells
Protocol: FIG. 6 TLR7 and 8 induce regulation of gene transcription. A549 or SK-MES cells were cultured for 6 h in the presence of loxoribine, Poly U, or Gardiquimod. Total RNA was extracted and analyzed for the expression of 182 genes using Taq Man Low Density Array technology. All genes with a value greater than 35 (CT) were excluded from the analysis. The ΔCT values for the expression of all genes were calculated by subtraction of the CT value of the 18S housekeeping gene. The ΔΔCT values were obtained by subtraction of the ΔCT values for unstimulated cells from those obtained for TLR7- or 8-stimulated cells. The fold increase (arbitrary unit) was obtained by 2^−ΔΔCT. Values were then clustered using the Genesis Software.
(§1) Total RNA was extracted from A549 or SK-MES cells stimulated with loxoribine, Poly U, or Gardiquimod for 6 h or from purified human lung cancer cells using the RNeasy isolation-kit RNA (Qiagen, Courtaboeuf, France). The integrity and the quantity of the RNA were evaluated with a bioanalyzer-2100 (Agilent Technologies). All samples were assessed for gene expression analysis using the Taq Man Low-Density Array angiogenesis and immune panel (Applied Biosystem). The RT-PCR experiments were carried-out according to the manufacturer's instructions (Applied-Biosystems). Quantitative real-time TaqMan-PCR was performed using Low-Density-Arrays and the 7900 robotic real-time PCR-system (Applied-Biosystems). The 18S primers and probes were used as internal controls. Data were analyzed using the SDS Software v2.2 (Applied-Biosystems). The ΔCT values were calculated for each gene by subtraction of the CT value of the 18S housekeeping gene from the CT of the gene of interest. The ΔΔCT values were obtained by subtraction of the ΔCT values for unstimulated cells from the CT obtained for stimulated cells. The fold increase (arbitrary unit) was obtained by 2^−ΔΔCT.

A549 and SK-MES cells [2] = assay: Chemoresistance assay (Trypan blue and Alamar blue); conditions: Alamar blue reduction
Protocol: FIG. 5 TLR7 and 8 induce chemoresistance of lung tumor cells. A549 (A-C) or SK-MES cells (D-F) were cultured with or without loxoribine or Poly U for 48 h, and then left untreated or were treated with cycloheximide, cisplatine, carboplatine, doxorubicine, or Navelbine. After 36 h, the percentage of dead cells was determined by Trypan blue exclusion (A, D) and cell viability was analyzed by the reduction of Alamar blue (B, C, E and F). Data represent mean values±SD from 3 independent experiments (*p<0.05; **p<0.01, ***p<0.001, Student test).
A549 and SK-MES cells were seeded in 96-well plates (1000 cells per well) and left unstimulated or were stimulated with loxoribine, Poly U, or Gardiquimod for 48 h. Cisplatine, carboplatine, doxorubicine, Navelbine, or cycloheximide was then added for an additional 36 h. The optical density in each well was determined 24 h after the addition of Alamar blue at 540 nm and 570 nm. Alternatively, viable and dead cells were counted using Trypan blue.

A549 cells [3] = assay: Cell cycle analysis (propidium iodide staining); conditions: PI staining
Protocol: (§2) FIG. 4 TLR7 and 8 induce survival of lung tumor cells. (A) A549 cells were unstimulated, stimulated with loxoribine (10 μg/ml), Poly U (10 μg/ml), or Gardiquimod(10μg/ml) and incubated with Alamar blue for 10 days. Reduction of Alamar blue was then determined by spectrophotometry at 570 and 600 nm. The percentage of reduced Alamar blue was calculated as described by the manufacturer. A549 cells were unstimulated or stimulated with loxoribine, Poly U, Gardiquimod, etoposide, or cycloheximide for 24 h. (B) The percentage of dead cells was determined by Trypan blue exclusion. (C) The DNA content was measured by IP staining after RNAse A treatment. The percentages indicate the proportion of subdiploid (G0/G1) and […]. Data represent mean values±SD from 3 independent experiments (*p<0.05; ** p<0.01, Student test). (D) A549 cells were cultured for 6 h in the presence of loxoribine, Poly U, or Gardiquimod, and the expression of Bcl-2 was assayed using Taq Man Low Density Array technology. The ΔCT values for Bcl-2 expression were calculated by subtraction of the CT value obtained for the 18S housekeeping gene. The ΔΔCT values were obtained by subtraction of ΔCT values for unstimulated cells from those obtained for stimulated cells. The fold increase (arbitrary unit) was obtained by 2^−ΔΔCT.
A549 cells were cultured in the presence of loxoribine, Poly U, Gardiquimod, etoposide, or cycloheximide. After 48 h, the cells were harvested, washed in cold PBS, and fixed with 2 ml of 70% cold ethanol in PBS for 2 h at 4° C. After centrifugation, the supernatant was removed and the pellet was rinsed with 0.5% PBS Tween. It was then incubated with […] of RNAse A and 50 μg of propidium iodide in PBS. Propidium iodide staining was determined with a FACScalibur cytometer.

[4] = system: 1549, H1355 and SK-MES cells; assay: Chemoresistance by colony formation assay; conditions: stimulated with Loxoribine 100 μM and/or polyU 10 μg/ml on days 0, 3, 6, 9
Protocol: Alternatively, chemoresistance was assessed by the colony formation assay. In this assay, 1549, H1355 and SK-MES cells were seeded in 6-well plates (500 cells per well) and incubated for 15 days at 37° under 5% CO2. The cells were left unstimulated or stimulated 100 μM Loxoribine or with 10 μg/ml single-stranded polyU RNA (InvivoGen) on days 0, 3, 6 and 9. On day 12, different anti-cancer agents were added at the respective LD50 (cisplatin and carboplatin 100 μM, navelbine 50 μM, doxorubicine 2 nM). On day 15, the wells ware washed with PBS, and stained with 6% (vol/vol) glutaraldehyde, 0.5% (wt/vol) crystal violet in water for 30 minutes. The cells were washed and the colonies of more than 50 cells counted. Cell survival was calculated as follows: number of colonies after chemotherapy/number of cells seeded on day 0×plating efficiency, where the plating efficiency is number of colonies/number of cells seeded.

[5] = system: Bcl-2 expression in A549 cells; assay: Bcl-2 expression, Taq Man Low Density Array, A549; conditions: 6 h, RT-PCR
Protocol: as §2, with “The fold increase (arbitrary unit) was obtained by 2^−ΔΔCT.” left out
as §1, with “The RT-PCR experiments were carried-out according to the manufacturer's instructions (Applied-Biosystems).” left out, “The 18S primers and probes were used as internal controls.” left out, “The ΔΔCT values were obtained by subtraction of the ΔCT values for unstimulated cells from the CT obtained for stimulated cells. The fold increase (arbitrary unit) was obtained by 2^−ΔΔCT.” left out

A549 cells [6] = assay: Tumor cell proliferation assay (Alamar blue reduction); conditions: 10 μg/ml, ten days
Protocol: as §2
Human lung cancer cell lines were seeded in 96-well plates (800 cells per well) and left unstimulated or were stimulated with loxoribine, Poly U, or Gardiquimod. The proliferation assay was performed with Alamar blue (AbD Serotec, Cergy Pontoise, France) according to the manufacturer's instructions. Briefly, cells were seeded and stimulated with TLR ligands in 100 μl of medium, and 10 μl of Alamar Blue was added. The optical density in each well was determined at 540 nm and 570 nm after 10 days of culture, and the percentage of reduced Alamar blue was determined. The percentage of reduced Alamar blue in unstimulated cells was determined as 100%, and the percentages of the stimulated cells were determined relative to this value.

[7] = system: Bcl-2 expression in SCC SK-MES cells; assay: Bcl-2 expression, SK-MES; conditions: data not shown
Protocol: as §1

Molecule | genes down-regulated in both SK-MES and A549 cells (A549 and SK-MES cells [1]) | genes up-regulated in A549 cells, but down-regulated in SK-MES cells (A549 and SK-MES cells [1]) | genes up-regulated in SK-MES, but down-regulated in A549 cells (A549 and SK-MES cells [1]) | genes up-regulated in both SK-MES and A549 cells (A549 and SK-MES cells [1]) | cell viability after chemotherapy when stimulated prior to induction of apoptosis (A549 and SK-MES cells [2]) | proportion of cells in G0/G1 or G2/M phases versus unstimulated cells (A549 cells [3]) | resistance of colonies to combined anti-cancer agents [4] | Bcl-2 expression compared to untreated cells [5] | increase in reduction of Alamar blue versus unstimulated cells (A549 cells [6]) [%] | increase in Bcl-2 expression [7] [fold]
C=CCn1c(=O)n([C@@H]2O[C@H](CO)[C@@H](O)[C@H]2O)c2nc(N)[nH]c(=O)c21 [loxoribine, 7-allyl-7,8-dihydro-8-oxo-guanosine] | Prolactin (PRL), CD80, Fibronectin-1 (FN-1), A Disintegrin And Metalloproteinase with ThromboSpondin motif 1 (ADAMTS1), and Serpin Peptidase Inhibitor Clade C1 (SERPINC1) | Angiopoietin like 3 (ANGPTL3), Serpin Peptidase Inhibitor Clade F1 (SERPINF1), and Angiopoietin 1 (ANGPT1) | ANGPTL1, Platelet Factor 4 (PF4), and fms related tyrosine kinase 4 (FLT4) | Bcl-2, CCR4, and Vasohibin-1 (VASH-1) | significantly higher viability | did not observe any significant differences | more resistant to treatment with combined anti-cancer agents | increased expression of Bcl-2 | 20 | 100
Poly U | Prolactin (PRL), CD80, Fibronectin-1 (FN-1), A Disintegrin And Metalloproteinase with ThromboSpondin motif 1 (ADAMTS1), and Serpin Peptidase Inhibitor Clade C1 (SERPINC1) | Angiopoietin like 3 (ANGPTL3), Serpin Peptidase Inhibitor Clade F1 (SERPINF1), and Angiopoietin 1 (ANGPT1) | ANGPTL1, Platelet Factor 4 (PF4), and fms related tyrosine kinase 4 (FLT4) | Bcl-2, CCR4, and Vasohibin-1 (VASH-1) | significantly higher viability | did not observe any significant differences | more resistant to treatment with combined anti-cancer agents | increased expression of Bcl-2 | 20 | 100
